The structures appear in SMILES notation.

The assay deals with Human immunodeficiency virus. Description: In vitro inhibitory activity against HIV was determined. In kind it is functional, organism-based. Conditions: Human immunodeficiency virus 1.

In turn, `Cc1cn([C@H]2C[C@H](O)[C@](CO)(N=[N+]=[N-])O2)c(=O)[nH]c1=O` returned an IC50 of 10 nM.

Usually IC50 stands for the midpoint of a concentration-inhibition curve. The low end stands for greater potency, the high end for weaker potency.
